Laboratory results as given in patent US20200087258A1, “INHIBITOR OF CITRATE TRANSPORTER AND THEIR USE IN THERAPY” (Eternygen GmbH, priority 2017, published 2020).

Target: INDY (Homo sapiens, UniProt Q86YT5)
Experiment: 14C-citrate uptake in HEK293 cells overexpressing recombinant human INDY (NaCT)
Type: cell-based
Parameters: expressed in transfected cells; host or cells: HEK293
Experimental: The compound was obtained by screening of a library containing more than 50,000 lead-like compounds and fragments. The library was tested using a functional citrate uptake assay with HEK293 cells overexpressing recombinant human INDY. The following hit confirmation was conducted in the same assay system. To confirm the activity of selected compounds on the target INDY another cell assay was conducted. In this assay system citrate uptake was measured using HepG2 cells which endogenously express INDY. Furthermore selectivity of selected compounds was tested for two other transporters in different assay systems. The first transporter was the glutamate transporter GLT-1 tested in a glutamate uptake assays using HEK293 cells overexpressing recombinant human GLT-1. The second transporter was the glucose transporter GLUT1 tested in a glucose uptake assay using Huh-7 cells which endogenously express GLUT1. Compounds were considered to be selective with an at least 5-fold higher activity for INDY than for the other two transporters.
Cells were maintained in cell medium using cell culture grade flasks (CellSTACK Corning, 500 cm2 dishes or T175 depending on cell number). The selection antibiotic and G418 (800 μg/ml) was added during cultivation but not for seeding into assay plates. For splitting, cells were washed with PBS (w/o Ca2+, Mg2+, phenol red) and detached with Trypsin/EDTA. Throughout cultivation cells were kept sub-confluent. Detached cells (50,000 cells/well) were seeded in 96-well plates (white, clear bottom from Corning #655098) and incubated over night before usage in the assay. The following media were used. For HEK293 cells expressing INDY MEM (PAA)+10% FCS+1×P/S+2 mM L-Gln; for HEK293 cells expressing GLT-1 DMEM (Gibco)+10% FCS+400 µg/ml G418; for Huh7 cells DMEM (Gibco)+10% FCS+2 mM L-Gin (+1×P/S); for HepG2 cells MEM (PAA, Cat # E15-024)+10% FCS+2 mM L-Gin+1×NEAA+1 mM Na-Pyruvat
The following assay buffers for the particular uptake reaction were used. Citrate uptake buffer: 120 mM NaCl, 5.4 mM KCl, 0.8 mM MgSO4, 5 mM glucose, 1.8 mM CaCl2, 25 mM Hepes, 25 mM MES, pH 6.5. Glutamate uptake buffer: HBSS, 1 mM CaCl2, 1 mM MgCl2, 20 mM Hepes pH 7.4. Glucose uptake buffer: 25 mM Hepes+25 mM MES pH 7.4, 120 mM NaCl, 5.4 mM KCl, 1.8 mM CaCl2, 0.8 mM MgSO4.
INDY mediated citrate uptake was determined in HEK293 cells. To determine the uptake of ^14C labelled citrate into cells, HEK293 cells over-expressing human NaCT were used. Cloning of human NaCT was done in analogy as described in Birkenfeld et al. (Birkenfeld et al., 2011, Cell Metabolism 14, 184-195, 2011).
Human NaCT HEK293 cells were seeded into white clear-bottom 96-well plates (50,000/well) in the presence of 4 μg/ml Poly-D-Lysine and incubated at 37° C. for 16-24 hours. On the days of the assay the plates were washed once with assay buffer using automated washing/LS 405 Selectors, BioTek ending with a buffer volume of 40 μl. Then 5 μl of compound solution in assay buffer was added and incubated for 5-30 min at 37° C. in cell incubator, HERA cell Heraeus. Afterwards 10 μl of substrate 14C-citrate ([…]/[…] per well) were added and incubated for another 20-90 min at 37° C. in cell incubator, HERAcell. Then plates were washed twice with 200 μl ice-cold assay buffer and residual volume was discarded. For cell lysis 50 μl ice-cold NaOH (100 mM) was added and incubated for 15 minutes at RT on a plate shaker. Finally, 200 μl scintillation fluid (scintillator OptiPhase Supermix, Perkin Elmer) was added. After 15 min incubation at RT without shaking, plates were measured using a TopCount reader system (Perkin Elmer). As a positive control 10 mM citrate was applied. It is possible to use this assay also in analogy in a 384-well plate format.

Sequence of INDY (Q86YT5 whole entry): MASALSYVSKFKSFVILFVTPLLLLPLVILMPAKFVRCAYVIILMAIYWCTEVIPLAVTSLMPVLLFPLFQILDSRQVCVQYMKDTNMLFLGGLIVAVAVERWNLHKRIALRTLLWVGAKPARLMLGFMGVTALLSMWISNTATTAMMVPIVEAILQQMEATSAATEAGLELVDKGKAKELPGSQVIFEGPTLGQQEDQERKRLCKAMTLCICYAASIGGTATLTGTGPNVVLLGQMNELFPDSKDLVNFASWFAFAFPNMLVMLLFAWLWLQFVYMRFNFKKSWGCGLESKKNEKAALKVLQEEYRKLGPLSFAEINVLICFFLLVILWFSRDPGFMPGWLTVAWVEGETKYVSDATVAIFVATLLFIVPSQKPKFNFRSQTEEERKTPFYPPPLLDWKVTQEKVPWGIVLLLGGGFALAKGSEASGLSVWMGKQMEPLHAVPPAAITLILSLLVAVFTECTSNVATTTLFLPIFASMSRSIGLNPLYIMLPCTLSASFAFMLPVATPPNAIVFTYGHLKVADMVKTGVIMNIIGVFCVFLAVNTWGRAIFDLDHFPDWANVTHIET

IC50 [µM]	SMILES
> 20	O=C(NCc1ccccc1C(F)(F)F)C1CCN(S(=O)(=O)/C=C/c2ccccc2)CC1 [Example 11, 1-[(E)-2-phenylethenesulfonyl]-N-{[2-(trifluoromethyl)phenyl]methyl}piperidine-4-carboxamide]
20.6	N#Cc1ccc(S(=O)(=O)N2CCC(C(=O)NCc3ccccc3F)CC2)cc1 [Example 13, 1-(4-cyanobenzenesulfonyl)-N-[(2-fluorophenyl)methyl]piperidine-4-carboxamide]
> 20	O=C(NCc1ccc2[nH]cnc2c1)C1CCN(S(=O)(=O)/C=C/c2ccccc2)CC1 [Example 14, N-[(1H-1,3-benzodiazol-5-yl)methyl]-1-[(E)-2-phenylethenesulfonyl]piperidine-4-carboxamide]
> 20	O=C(NCc1ccccc1F)C1CCN(S(=O)(=O)c2ccc([N+](=O)[O-])cc2)CC1 [Example 17, N-[(2-fluorophenyl)methyl]-1-(4-nitrobenzenesulfonyl)piperidine-4-carboxamide]
> 20	CS(=O)(=O)c1ccccc1CNC(=O)C1CCN(S(=O)(=O)/C=C/c2ccccc2)CC1 [Example 18, N-[(2-methanesulfonylphenyl)methyl]-1-[(E)-2-phenylethenesulfonyl]piperidine-4-carboxamide]
> 20	CC(=O)Nc1ccc(S(=O)(=O)N2CCC(C(=O)NCc3ccccc3F)CC2)cc1 [Example 20, 1-(4-acetamidobenzenesulfonyl)-N-[(2-fluorophenyl)methyl]piperidine-4-carboxamide]
15.2	Cc1ccccc1CNC(=O)C1CCN(S(=O)(=O)/C=C/c2ccccc2)CC1 [Example 31, N-[(2-methylphenyl)methyl]-1-[(E)-2-phenylethenesulfonyl]piperidine-4-carboxamide]
> 20	O=C(NCc1ccccc1N1CCOCC1)C1CCN(S(=O)(=O)/C=C/c2ccccc2)CC1 [Example 40, N-{[2-(morpholin-4-yl)phenyl]methyl}-1-[(E)-2-phenylethenesulfonyl]piperidine-4-carboxamide]
> 20	CC(C)(C)c1ccccc1S(=O)(=O)N1CCC(C(=O)NCc2ccccc2F)CC1 [Example 42, 1-(2-tert-butylbenzenesulfonyl)-N-[(2-fluorophenyl)methyl]piperidine-4-carboxamide]
11.8	O=C(NCc1ccccc1F)C1CCN(S(=O)(=O)c2ccc(F)cc2)CC1 [Example 45, 1-(4-fluorobenzenesulfonyl)-N-[(2-fluorophenyl)methyl]piperidine-4-carboxamide]
> 20	COc1ccc(CNC(=O)C2CCN(S(=O)(=O)/C=C/c3ccccc3)CC2)c(F)c1 [Example 48, N-[(2-fluoro-4-methoxyphenyl)methyl]-1-[(E)-2-phenylethenesulfonyl]piperidine-4-carboxamide]
14.4	CC(C)(C)c1ccc(S(=O)(=O)N2CC(C(=O)NCc3ccccn3)C2)cc1 [Example 51, 1-(4-tert-butylbenzenesulfonyl)-N-[(pyridin-2-yl)methyl]azetidine-3-carboxamide]
> 20	O=C(NCc1ccccc1F)C1CN(S(=O)(=O)c2ccc(C(F)(F)F)cc2)C1 [Example 52, N-[(2-fluorophenyl)methyl]-1-[4-(trifluoromethyl)benzenesulfonyl]azetidine-3-carboxamide]
15.9	N#Cc1ccccc1CNC(=O)C1CCN(S(=O)(=O)/C=C/c2ccccc2)CC1 [Example 53, N-[(2-cyanophenyl)methyl]-1-[(E)-2-phenylethenesulfonyl]piperidine-4-carboxamide]
> 20	CC(C)Oc1ccccc1CNC(=O)C1CCN(S(=O)(=O)/C=C/c2ccccc2)CC1 [Example 54, 1-[(E)-2-phenylethenesulfonyl]-N-{[2-(propan-2-yloxy)phenyl]methyl}piperidine-4-carboxamide]
> 20	O=C(NCc1ccc(F)cc1)C1CCN(S(=O)(=O)/C=C/c2ccccc2)CC1 [Example 56, N-[(4-fluorophenyl)methyl]-1-[(E)-2-phenylethenesulfonyl]piperidine-4-carboxamide]
> 20	COc1ccc(S(=O)(=O)N2CCC(C(=O)NCc3ccccn3)CC2)c(OC)c1 [Example 61, 1-(2,4-dimethoxybenzenesulfonyl)-N-[(pyridin-2-yl)methyl]piperidine-4-carboxamide]
> 20	O=C(NCc1ccccn1)C1CCN(S(=O)(=O)c2c(Cl)cccc2Cl)CC1 [Example 63, 1-(2,6-dichlorobenzenesulfonyl)-N-[(pyridin-2-yl)methyl]piperidine-4-carboxamide]
> 20	CN(C)c1ccc(S(=O)(=O)N2CCC(C(=O)NCc3ccccn3)CC2)cc1 [Example 64, 1-[4-(dimethylamino)benzenesulfonyl]-N-[(pyridin-2-yl)methyl]piperidine-4-carboxamide]
> 20	CN(C)c1ccc(S(=O)(=O)N2CCC(C(=O)NCc3ccccc3F)CC2)cc1 [Example 65, 1-[4-(dimethylamino)benzenesulfonyl]-N-[(2-fluorophenyl)methyl]piperidine-4-carboxamide]
12.9	COC(=O)c1ccccc1CNC(=O)C1CCN(S(=O)(=O)/C=C/c2ccccc2)CC1 [Example 66, methyl 2-[({1-[(E)-2-phenylethenesulfonyl]piperidin-4-yl}formamido)methyl]benzoate]
19.7	O=C(NCc1ccccn1)C1CCN(S(=O)(=O)c2ccc(-c3ccccc3)cc2)CC1 [Example 68, 1-{[1,1′-biphenyl]-4-sulfonyl}-N-[(pyridin-2-yl)methyl]pipendine-4-carboxamide]
> 20	O=C(NCc1ccccn1)C1CCN(S(=O)(=O)c2ccc(N3CCCC3)cc2)CC1 [Example 70, N-[(pyridin-2-yl)methyl]-1-[4-(pyrrolidin-1-yl)benzenesulfonyl]pipendine-4-carboxamide]
14.4	O=C(NCc1ccccn1)C1CCN(S(=O)(=O)c2ccccc2Cl)CC1 [Example 71, 1-(2-chlorobenzenesulfonyl)-N-[(pyridin-2-yl)methyl]pipendine-4-carboxamide]
> 20	O=C(NCc1ccccc1F)C1CCN(S(=O)(=O)c2ccc(O)cc2)CC1 [Example 72, N-[(2-fluorophenyl)methyl]-1-(4-hydroxybenzenesulfonyl)pipendine-4-carboxamide]
> 20	O=C(NCc1ccccn1)C1CCN(S(=O)(=O)c2cccc([N+](=O)[O-])c2)CC1 [Example 76, 1-(3-nitrobenzenesulfonyl)-N-[(pyridin-2-yl)methyl]pipendine-4-carboxamide]
> 20	NC(=O)c1ccc(S(=O)(=O)N2CCC(C(=O)NCc3ccccc3F)CC2)cc1 [Example 77, 1-(4-carbamoylbenzenesulfonyl)-N-[(2-fluorophenyl)methyl]pipendine-4-carboxamide]
> 20	NC(=O)c1ccccc1CNC(=O)C1CCN(S(=O)(=O)c2cc(Cl)cc(Cl)c2)CC1 [Example 80, N-[(2-carbamoylphenyl)methyl]-1-(3,5-dichlorobenzenesulfonyl)pipendine-4-carboxamide]
> 20	O=C(NCc1ccccn1)C1CCN(S(=O)(=O)c2cccc(Cl)c2Cl)CC1 [Example 83, 1-(2,3-dichlorobenzenesulfonyl)-N-[(pyridin-2-yl)methyl]pipendine-4-carboxamide]
> 20	COC(=O)c1cccc(S(=O)(=O)N2CCC(C(=O)NCc3ccccc3F)CC2)c1 [Example 88, methyl 3-[(4-{[(2-fluorophenyl)methyl]carbamoyl}piperidin-1-yl)sulfonyl]benzoate]
